Counter-ions that a name gives are not always drawn.

What is called melting point is the temperature, or range, at which the solid turns liquid.

Consider `O=C1CN(c2ccc(S(=O)(=O)c3ccccc3)cc2O)S(=O)(=O)N1` [Example 318, 5-(4-Benzenesulfonyl-2-hydroxyphenyl)-1,1-dioxo-1,2,5-thiadiazolidin-3-one], for which the melting point was in the range of 126 to 180 °C. The value for `O=C1CN(c2ccc(OCCc3ccccc3)cc2O)S(=O)(=O)N1` [Example 55, 5-(2-Hydroxy-4-phenethyloxyphenyl)-1,1-dioxo-1,2,5-thiadiazolidin-3-one] was 65 to 70 °C; that for `COC(=O)c1c(O)cccc1OCCCCNC(=O)CCc1ccc(N2CC(=O)NS2(=O)=O)c(O)c1` [Example 110, 2-Hydroxy-6-(4-{3-[3-hydroxy-4-(1,1,4-trioxo-1,2,5-thiadiazolidin-2-yl)-phenyl]-propionylamino}-butoxy)-benzoic Acid Methyl Ester] was 85 to 90 °C; that for `O=C1CN(c2ccc(-c3ccoc3)cc2O)S(=O)(=O)N1` (as salt: potassium) [Example 272, 5-(4-Furan-3-yl-2-hydroxyphenyl)-1,1-dioxo-1,2,5-thiadiazolidin-3-one] was 230 to 235 °C. With `O=C(O)COc1ccc(N2CC(=O)NS2(=O)=O)c(O)c1` [Example 296, [3-Hydroxy-4-(1,1,4-trioxo-1,2,5-thiadiazolidin-2-yl)-phenoxy]-acetic Acid], the melting point was 185 to 188 °C.

Source of the values: patent publication US8084448B2, “Organic compounds” (Novartis AG, priority 2006, dated 2011).
